Measurements as given in patent US9795644B2, “Reduction of in vitro genotoxicity of pollen extracts by removal of flavonoids” (STALLERGENES, priority 2009, dated 2017).

Assays:
[1] = test system: mouse lymphoma thymidine kinase gene mutation; test: MLA/TK test of quercetin by Meltz and MacGregor (4-h short term protocol), modelled by equation (2); assay type: cell-based; details: quercetin 0.83-0.86 μg/mL; from data of Meltz and MacGregor
Procedure: To our knowledge, quercetin is the only flavonoid aglycone that was studied in the MLA/TK test, namely in a work by Meltz and MacGregor who used a 4-h short term protocol (Mutat. Res. 1981; 88: 317-324).
The induction ratios that should result from those amounts was deduced from the data of Meltz and MacGregor. Such deduced induction ratios were then compared to the induction ratio actually observed.
The lowest concentration of quercetin tested by Meltz and MacGregor was 10 μg/mL. Therefore, to determine the ratio that should be obtained with the lowest concentration of 0.864 μg/mL or below, the relationship between (a) the concentrations of quercetin tested by Meltz and MacGregor and (b) the corresponding induction ratios they observed was mathematically modelled. Since those ratios started reaching a plateau at the first concentration tested, we choose to use a logarithmic function for such a modelization. Given that the ratio is necessarily of 1 for 0 μg/mL of mutagen (control), the logarithmic function will be of the form: y=a·ln(x+1)+1 (1)
Using the ratios obtained by Meltz and MacGregor for 10, 20 and 30 μg/mL of quercetin allows a mathematical modelization by the following equation with an excellent correlation coefficient (r=0.99): y=3.0822×ln(x+1)+1 (2).

[2] = other in vitro genotoxic tests; cited from earlier work
[3] = incubation at 37° C. under MLA/TK conditions, deglycosylation followed by reverse phase HPLC; assay type: physicochemical; details: 24 h at 37° C., in presence of grass pollen proteins; from peak areas
Procedure: Grass pollen flavonoids were first identified by reverse phase HPLC, according to their hydrophobicity. Reverse phase HPLC was performed on a Atlantis dC18 column, 4.6×250 mm, 5 μm, Waters, Milford, Mass., USA; with a gradient elution: 0.1% formic acid qsp water to 0.1% formic acid qsp acetonitrile in 30 min; flow rate: 1 mL/min; run time: 45 min; detection wavelength: 354 or 254 nm; injection volume 50 μL. Importantly, grass pollen extracts were diluted 5 times in methanol before analysis in order to solubilize both flavonoid glycosides and flavonoid aglycones, the latter being hardly soluble in water.
Analysis of samples was performed using the HPLC method described above for the detection of flavonoids.
As (a) the sum of all peaks areas was rather well conserved and (b) the decrease of a flavonoid diglucoside-corresponding peak was related to the increase or appearance of flavonoid monoglycoside and/or aglycone-corresponding peak(s), it could be considered that the ratio between the two peaks areas is equivalent to the molar ratio of the corresponding flavonoids. On this basis, the decrease in quercetin-diglucoside leaded to an equal increase in molecules of quercetin-monoglucoside and in molecules of quercetin aglycone.

induction ratio interpolated with equation (2) [1]	share deglycosylated into quercetin (aglycone) [3] [%]	SMILES	genotoxicity rank among flavonoid aglycones [2]
2.9	–	O=c1c(O)c(-c2ccc(O)c(O)c2)oc2cc(O)cc(O)c12 [quercetin]	the most genotoxic flavonoid aglycone
–	~20	O=c1c(O[C@@H]2O[C@H](CO)[C@@H](O)[C@H](O)[C@H]2O)c(-c2ccc(O[C@@H]3O[C@H](CO)[C@@H](O)[C@H](O)[C@H]3O)c(O)c2)oc2cc(O)cc(O)c12 [quercetin-diglucoside, quercetin-3,4′-diglucoside]	–
